Assay results from patent US9233078B2, “Nanoparticles comprising a non-ionizable polymer and an Amine-functionalized methacrylate copolymer” (Bend Research, Inc., priority 2007, dated 2016).
≈ marks a conversion by molar mass, not a printed value. Each block holds one compound with its values, some of them ahead of it.

Experiments:
[1] = Aqueous solubility of the drugs; format: physicochemical; conditions: water
Log P of Drug 1 = format: physicochemical; conditions: octanol/water
Text: The first property of hydrophobic drugs is that they are extremely hydrophobic. Log P, defined as the base 10 logarithm of the ratio of the drug solubility in octanol to the drug solubility in water, is a widely accepted measure of hydrophobicity. By “extremely hydrophobic” is meant that the Log P value of the drug is at least 4.0, preferably at least 4.5, and most preferably at least 5.0. Log P may be measured experimentally or calculated using methods known in the art. When using a calculated value for Log P, the highest value calculated using any generally accepted method for calculating Log P is used. Calculated Log P values are often referred to by the calculation method, such as Clog P, Alog P, and Mlog P. The Log P may also be estimated using fragmentation methods, such as Crippen's fragmentation method (27 J. Chem. Inf. Comput. Sci. 21 (1987)); Viswanadhan's fragmentation method (29 J. Chem. Inf. Comput. Sci. 163 (1989)); or Broto's fragmentation method (19 Eur. J. Med. Chem.-Chim. Theor. 71 (1984). Preferably the Log P value is calculated by using the average value estimated using Crippen's, Viswanadhan's, and Broto's fragmentation methods.

[2] = Free drug analysis, 100,000-dalton cutoff filtration and HPLC; format: physicochemical; conditions: 2.5 mgA/mL suspension in deionized water with dextrose, about 300 mOsm
Protocol: The suspension was filtered using a centrifuge tube filter with a 100,000-dalton molecular-weight cutoff. The filtrate solution was assayed by high-performance liquid chromatography (HPLC).

[3] = for Observations: pH 6.5
Protocol: The polymer is a poorly aqueous soluble non-ionizable polymer. […] An appropriate PBS solution is an aqueous solution comprising 20 mM sodium phosphate (Na2HPO4), 47 mM potassium phosphate (KH2PO4), 87 mM NaCl, and 0.2 mM KCl, adjusted to pH 6.5 with NaOH. A test to determine whether the polymer is poorly aqueous soluble may be performed as follows. The polymer is initially present in bulk powder form with average particle sizes of greater than about 1 micron. The polymer alone is administered at a concentration of 0.2 mg/mL to the PBS solution and stirred for approximately 1 hour at room temperature. Next, a nylon 0.45 μm filter is weighed, and the polymer solution is filtered. The filter is dried overnight at 40° C., and weighed the following morning. The amount of polymer dissolved is calculated from the amount of polymer added to the PBS solution minus the amount of polymer remaining on the filter (mg). […] First, 0.2 mg/mL of the polymer was added to a PBS solution consisting of 20 mM Na2HPO4, 47 mM KH2PO4, 87 mM NaCl, and 0.2 mM KCl, adjusted to pH 6.5 with NaOH. The polymer was stirred in the PBS solution for approximately 1 hour at room temperature. Next, the polymer solution was filtered through a nylon 0.45 μm filter that was weighed dry prior to filtration. The filter was dried overnight at 40° C., and weighed the following morning. The amount of soluble polymer was calculated from the amount of polymer added to form the polymer solution minus the amount of polymer remaining on the filter.

Compound: CC[C@@H]1C[C@H](N(Cc2cc(C(F)(F)F)cc(C(F)(F)F)c2)C(C)=O)c2cc(C(F)(F)F)ccc2N1C(=O)OC(C)C [Drug 2, [2R,4S] 4-[acetyl-(3,5-bis-trifluoromethyl-benzyl)-amino]-2-ethyl-6-trifluoromethyl-3,4-dihydro-2H-quinoline-1-carboxylic acid isopropyl ester]
solubility [1]: < 1 µg/mL

Compound: CCNC1CN(CCCOC)S(=O)(=O)c2sc(S(N)(=O)=O)cc21 (centres unmarked) [Drug 5, brinzolamide, reference compound]
solubility [1]: ~490 µg/mL (≈ 1280 µM)

Compound: cellulose triacetate
Amount Soluble at pH 6.5 [3]: <0.001 mg/mL
Observations [3]: Fine particle

Compound: ethylcellulose
Amount Soluble at pH 6.5 [3]: <0.001 mg/mL
Observations [3]: Fine particle

Further lines, results first:

solubility [1]: ~10 µg/mL (≈ 31.8 µM)
logP (Log P of Drug 1): ~3
Free Drug [2]: 11 µg/mL
Compound: Cc1onc(-c2ccccc2)c1-c1ccc(S(N)(=O)=O)cc1 [Drug 1, 4-(5-methyl-3-phenyl-4-isoxazolyl) benzenesulfonamide]

solubility [1]: ~650 µg/mL (≈ 1660 µM)
Compound: Cc1ccc(C)c(Cc2nc(CO)nn2-c2ccc(S(N)(=O)=O)cc2F)c1 [Drug 3]

solubility [1]: ~740 µg/mL (≈ 1650 µM)
Compound: COCCN(C)Cc1nc(Cc2cccc(C)c2)n(-c2ccc(S(N)(=O)=O)cc2F)n1 [Drug 4]
